Measurements published in publication PMC8359193, “Summary of reference chemicals evaluated by the fish short‐term reproduction assay, OECD TG229, using Japanese Medaka, Oryzias latipes” (Journal of Applied Toxicology, 2021).

System: Japanese medaka (Oryzias latipes)
Test: Fish short-term reproduction assay (FSTRA, OECD TG229), 21-day flow-through exposure
Details: for Fertility rate (%) / Mortality (%) Female / Mortality (%) Male / Number of fertilized eggs / Number of total eggs / SSC Female / VTG (ng/mg of liver) Female / VTG (ng/mg of liver) Male: 21 days; for GSI Female / GSI Male / HSI Female / HSI Male / Length Female / Length Male / Weight Female / Weight Male: at completion of exposure
How it was run: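 Japanese medaka (NIES-R strain, 16 ± 2 weeks old) were exposed in flow-through tanks for 3 weeks, three males and three females per tank, four replicate tanks per group, with a dilution water control. Concentrations were spaced by a factor of 2–5. Eggs were collected daily and counted as fertilized or unfertilized.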

Cc1cc(O)ccc1Cl [CMP, 4‐Chloro‐3‐methylphenol]
LOEC on VTG induction in male (in molarity) (hepatic VTG, 21-day exposure): 7.4 µM
LOEC (in molarity) for male VTG: times higher than that of E2 (in vivo): 110,000 times
Fertility rate (%) (measured conc. 108 μg/L): 94%
Mortality (%) Female (measured conc. 108 μg/L): 0%
Mortality (%) Male (measured conc. 108 μg/L): 0%
Number of fertilized eggs (measured conc. 108 μg/L): 24
Number of total eggs (measured conc. 108 μg/L): 26 ± 3.2 /female/day
SSC Female (measured conc. 108 μg/L): 0 ± 0
VTG (ng/mg of liver) Female (measured conc. 108 μg/L): 2,610 ± 265 ng/mg of liver
VTG (ng/mg of liver) Male (measured conc. 108 μg/L): 2.9 ± 4.4 ng/mg of liver
GSI Female (measured conc. 108 μg/L): 9.9%
GSI Male (measured conc. 108 μg/L): 0.80%
HSI Female (measured conc. 108 μg/L): 3.9%
HSI Male (measured conc. 108 μg/L): 1.9%
Length Female (measured conc. 108 μg/L): 36.5 mm
Length Male (measured conc. 108 μg/L): 36.0 mm
Weight Female (measured conc. 108 μg/L): 565 mg
Weight Male (measured conc. 108 μg/L): 498 mg
Fertility rate (%) (measured conc. 350 μg/L): 94%
Mortality (%) Female (measured conc. 350 μg/L): 0%
Mortality (%) Male (measured conc. 350 μg/L): 0%
Number of fertilized eggs (measured conc. 350 μg/L): 24
Number of total eggs (measured conc. 350 μg/L): 25 ± 3.9 /female/day
SSC Female (measured conc. 350 μg/L): 0 ± 0
VTG (ng/mg of liver) Female (measured conc. 350 μg/L): 2,650 ± 214 ng/mg of liver
VTG (ng/mg of liver) Male (measured conc. 350 μg/L): 9.9 ± 18.3 ng/mg of liver
GSI Female (measured conc. 350 μg/L): 9.8%
GSI Male (measured conc. 350 μg/L): 0.68%
HSI Female (measured conc. 350 μg/L): 4.4%
HSI Male (measured conc. 350 μg/L): 2.4%
Length Female (measured conc. 350 μg/L): 35.4 mm
Length Male (measured conc. 350 μg/L): 36.4 mm
Weight Female (measured conc. 350 μg/L): 509 mg
Weight Male (measured conc. 350 μg/L): 529 mg
Fertility rate (%) (measured conc. 1,060 μg/L): 93%
Mortality (%) Female (measured conc. 1,060 μg/L): 8.3%
Mortality (%) Male (measured conc. 1,060 μg/L): 0%
Number of fertilized eggs (measured conc. 1,060 μg/L): 23
Number of total eggs (measured conc. 1,060 μg/L): 25 ± 2.3 /female/day
SSC Female (measured conc. 1,060 μg/L): 0 ± 0
VTG (ng/mg of liver) Female (measured conc. 1,060 μg/L): 3,020 ± 702 ng/mg of liver
VTG (ng/mg of liver) Male (measured conc. 1,060 μg/L): 33.8 ± 37.0 ng/mg of liver
GSI Female (measured conc. 1,060 μg/L): 9.9%
GSI Male (measured conc. 1,060 μg/L): 0.74%
HSI Female (measured conc. 1,060 μg/L): 3.9%
HSI Male (measured conc. 1,060 μg/L): 2.0%
Length Female (measured conc. 1,060 μg/L): 35.2 mm
Length Male (measured conc. 1,060 μg/L): 36.3 mm
Weight Female (measured conc. 1,060 μg/L): 509 mg
Weight Male (measured conc. 1,060 μg/L): 505 mg
effect on fecundity (number of total eggs), in words (within the test concentrations, 21-day exposure): No effect
